Organism: Rattus norvegicus
Experiment: DrugMatrix - Regimen: Daily Repeat
Format: toxicity, organism-based, Sprague-Dawley
Set-up: regimen Daily Repeat, gender Male, age 6-8 weeks
Details: in vivo, po, route oral GAVAGE, vehicle 100 % WATER; for ABSOLUTE BASOPHIL / ABSOLUTE EOSINOPHIL / ABSOLUTE LYMPHOCYTE / ABSOLUTE MONOCYTE / ABSOLUTE SEGMENTED NEUTROPHIL / BASOPHIL / EOSINOPHIL / ERYTHROCYTE COUNT / HEMATOCRIT / HEMOGLOBIN / LEUKOCYTE COUNT / LYMPHOCYTE / MEAN CORPUSCULAR HEMOGLOBIN / MEAN CORPUSCULAR HEMOGLOBIN CONCENTRATION / MEAN CORPUSCULAR VOLUME / MONOCYTE / NEUTROPHIL / NUCLEATED RED BLOOD CELLS / PLATELET COUNT: tissue Blood; for ALANINE AMINOTRANSFERASE / ALBUMIN / ALKALINE PHOSPHATASE / ASPARTATE AMINOTRANSFERASE / BLOOD UREA NITROGEN / CARBON DIOXIDE / CHLORIDE / CHOLESTEROL / CREATINE PHOSPHOKINASE / CREATININE / GLUCOSE / LACTATE DEHYDROGENASE / LIPASE / PHOSPHORUS / POTASSIUM / SODIUM / TOTAL BILIRUBIN / TOTAL PROTEIN / URIC ACID: tissue Plasma
[1] = 0.07 mg/kg, 120 h, dose level Low, time 5 day
[2] = 0.5 mg/kg, 72 h, dose level High, time 3 day
[3] = 0.5 mg/kg, 120 h, dose level High, time 5 day

## Cc1cc(C(C)(C)C)c(O)c(C)c1CC1=NCCN1 [OXYMETAZOLINE]
[1]
  ABSOLUTE BASOPHIL: 0 CELLS/uL
  ABSOLUTE EOSINOPHIL: 196 CELLS/uL
  ABSOLUTE LYMPHOCYTE: 15823.67 CELLS/uL
  ABSOLUTE MONOCYTE: 436.67 CELLS/uL
  ABSOLUTE SEGMENTED NEUTROPHIL: 2110.33 CELLS/uL
  BASOPHIL: 0%
  EOSINOPHIL: 1%
  ERYTHROCYTE COUNT: 5.33 x10E6/uL
  HEMATOCRIT: 33.03%
  HEMOGLOBIN: 13.6 G/DL
  LEUKOCYTE COUNT: 18.57 x10E3/uL
  LYMPHOCYTE: 85.33%
  MEAN CORPUSCULAR HEMOGLOBIN: 25.53 pg
  MEAN CORPUSCULAR HEMOGLOBIN CONCENTRATION: 41.13 G/DL
  MEAN CORPUSCULAR VOLUME: 61.93 fL
  MONOCYTE: 2.33%
  NEUTROPHIL: 11.33%
  NUCLEATED RED BLOOD CELLS: 0 /100WBC
  PLATELET COUNT: 1316.33 x10E3/uL
  ALANINE AMINOTRANSFERASE: 45.33 u/L
  ALBUMIN: 4.4 G/DL
  ALKALINE PHOSPHATASE: 411.67 u/L
  ASPARTATE AMINOTRANSFERASE: 82 u/L
  BLOOD UREA NITROGEN: 13 mg/dL
  CARBON DIOXIDE: 29 mmol/L
  CHLORIDE: 101.67 MEQ/L
  CHOLESTEROL: 75.33 mg/dL
  CREATINE PHOSPHOKINASE: 214.67 u/L
  CREATININE: 0.21 mg/dL
  GLUCOSE: 167 mg/dL
  LACTATE DEHYDROGENASE: 203.67 u/L
  LIPASE: 10.67 u/L
  PHOSPHORUS: 11.53 mg/dL
  POTASSIUM: 6.21 MEQ/L
  SODIUM: 142.97 MEQ/L
  TOTAL BILIRUBIN: 0.13 mg/dL
  TOTAL PROTEIN: 5.97 G/DL
  URIC ACID: 1.73 mg/dL
[2]
  ABSOLUTE BASOPHIL: 0 CELLS/uL
  ABSOLUTE EOSINOPHIL: 0 CELLS/uL
  ABSOLUTE LYMPHOCYTE: 15583 CELLS/uL
  ABSOLUTE MONOCYTE: 59.33 CELLS/uL
  ABSOLUTE SEGMENTED NEUTROPHIL: 1491 CELLS/uL
  BASOPHIL: 0%
  EOSINOPHIL: 0%
  ERYTHROCYTE COUNT: 5.61 x10E6/uL
  HEMATOCRIT: 35.17%
  HEMOGLOBIN: 13.97 G/DL
  LEUKOCYTE COUNT: 17.13 x10E3/uL
  LYMPHOCYTE: 91%
  MEAN CORPUSCULAR HEMOGLOBIN: 24.9 pg
  MEAN CORPUSCULAR HEMOGLOBIN CONCENTRATION: 39.73 G/DL
  MEAN CORPUSCULAR VOLUME: 62.7 fL
  MONOCYTE: 0.33%
  NEUTROPHIL: 8.67%
  NUCLEATED RED BLOOD CELLS: 0 /100WBC
  PLATELET COUNT: 1369.67 x10E3/uL
  ALANINE AMINOTRANSFERASE: 42.67 u/L
  ALBUMIN: 3.6 G/DL
  ALKALINE PHOSPHATASE: 345.33 u/L
  ASPARTATE AMINOTRANSFERASE: 79.67 u/L
  BLOOD UREA NITROGEN: 16 mg/dL
  CARBON DIOXIDE: 25.67 mmol/L
  CHLORIDE: 105 MEQ/L
  CHOLESTEROL: 70.67 mg/dL
  CREATINE PHOSPHOKINASE: 215.33 u/L
  CREATININE: 0.14 mg/dL
  GLUCOSE: 166.67 mg/dL
  LACTATE DEHYDROGENASE: 174 u/L
  LIPASE: 9 u/L
  PHOSPHORUS: 10.3 mg/dL
  POTASSIUM: 5.92 MEQ/L
  SODIUM: 144.53 MEQ/L
  TOTAL BILIRUBIN: 0.2 mg/dL
  TOTAL PROTEIN: 5.43 G/DL
  URIC ACID: 1.73 mg/dL
[3]
  ABSOLUTE BASOPHIL: 0 CELLS/uL
  ABSOLUTE EOSINOPHIL: 250.33 CELLS/uL
  ABSOLUTE LYMPHOCYTE: 17058 CELLS/uL
  ABSOLUTE MONOCYTE: 0 CELLS/uL
  ABSOLUTE SEGMENTED NEUTROPHIL: 1425 CELLS/uL
  BASOPHIL: 0%
  EOSINOPHIL: 1.33%
  ERYTHROCYTE COUNT: 5.31 x10E6/uL
  HEMATOCRIT: 33.13%
  HEMOGLOBIN: 13.6 G/DL
  LEUKOCYTE COUNT: 18.73 x10E3/uL
  LYMPHOCYTE: 90.33%
  MEAN CORPUSCULAR HEMOGLOBIN: 25.67 pg
  MEAN CORPUSCULAR HEMOGLOBIN CONCENTRATION: 41.03 G/DL
  MEAN CORPUSCULAR VOLUME: 62.53 fL
  MONOCYTE: 0%
  NEUTROPHIL: 8.33%
  NUCLEATED RED BLOOD CELLS: 0 /100WBC
  PLATELET COUNT: 1420 x10E3/uL
  ALANINE AMINOTRANSFERASE: 47.33 u/L
  ALBUMIN: 3.93 G/DL
  ALKALINE PHOSPHATASE: 346 u/L
  ASPARTATE AMINOTRANSFERASE: 73 u/L
  BLOOD UREA NITROGEN: 14.33 mg/dL
  CARBON DIOXIDE: 30 mmol/L
  CHLORIDE: 104 MEQ/L
  CHOLESTEROL: 72.33 mg/dL
  CREATINE PHOSPHOKINASE: 164.33 u/L
  CREATININE: 0.11 mg/dL
  GLUCOSE: 141 mg/dL
  LACTATE DEHYDROGENASE: 161 u/L
  LIPASE: 10 u/L
  PHOSPHORUS: 10.57 mg/dL
  POTASSIUM: 6.08 MEQ/L
  SODIUM: 142.83 MEQ/L
  TOTAL BILIRUBIN: 0.1 mg/dL
  TOTAL PROTEIN: 5.37 G/DL
  URIC ACID: 1.4 mg/dL
